Experimental data as given in US11000568B2, “Means and methods for treating copper-related diseases” (HELMHOLTZ ZENTRUM MÜNCHEN—DEUTSCHES FORSCHUNGSZENTRUM FÜR …, priority 2015, dated 2021).
Entries after “also recorded” stand apart in the source; their conditions may differ. Counter-ions that a name gives are not always drawn.

Experiments:
LEC rats = settings: 100 mg/kg bw/d via drinking water, long-term; cited from earlier work
LPP−/− rats = test: Short-term in vivo treatment of LPP−/− rats; set-up: species or system rat; settings: MB i.p. 3 or 5 days; D-PA or TETA 4 days
Protocol: LPP rats were treated with MB either by daily i.p. injections for 3 or 5 consecutive days, or twice daily i.p. injections for 8 consecutive days at a dose of 150 mg/kg bw or 4 days via the drinking water with D-PA at a dose of 100 mg/kg bw/d or TETA at 480 mg/kg bw/d, respectively (Togashi et al., Hepatology 15, 82-87 (1992)). Based on a mean copper content of 250 μg/g w.w. in Atp7b−/− rat livers at the age of treatment start (Zischka et al., log. cit.), a LPP−/− rat liver of 8 g w.w. contains around 31.5 μmol copper. Single MB doses were chosen equimolar to this copper amount. […] Assuming 40 ml water intake per day for a rat weighing 250 g this translates to a dose of 480 mg/kg bw/d. With respect to the mean liver copper content in LPP−/− rats aged 85 days, the molar ratios of the chelators applied was MB 1:D-PA 4.3:TETA 17.4, respectively. For the intravenous MB application (150 mg/kg bw), catheters connected to a PinPort™ (Instech Laboratories, Inc., USA) were inserted in the femoral vein of the rat, fixed with non-absorbable sutures and subcutaneously tunneled and exteriorized through a skin incision made between the shoulders.
Formalin-fixed, paraffin-embedded liver samples were cut into 4 μm-thick sections and either stained with hematoxylin and eosin for standard analyses or with Masson trichrome for analysis of fibrotic tissue. AST activity and bilirubin concentration in animal plasma or serum were measured with a Reflotron system (Roche).
Copper in liver homogenates, cell lysates and mitochondrial preparations were analyzed by ICP-OES (Ciros Vision, SPECTRO Analytical Instruments GmbH) after wet ashing of samples with 65% nitric acid (Zischka et al., log. cit.).
The efficiency of a short-term MB treatment schedule was assessed in LPP−/− rats at the age of liver disease onset (85-90 days). Animals received MB (i.p.) either for 3 or 5 days or the clinically used copper chelators D-PA or TETA, which were orally administered for 4-days.

LPP−/− livers = test: Two hour LPP−/− liver perfusion; set-up: species or system rat; settings: MB 0.7 μM, TTM 0.8 μM, D-PA 2.2 μM, TETA 1.8 μM
Protocol: LPP−/− livers (animal age 79-83 days) were perfused in a single pass manner with Krebs-Ringer bicarbonate solution containing 5 mM glucose (Beuers et al., J Biol Chem 278, 17810-17818 (2003)). The medium was gassed with 95% O2/5% CO2 and kept at 37° C. Rat livers were perfused via the portal vein (Beuers et al., log. cit.), the right lateral liver lobe was ligated and its copper content served as pre-perfusion control (Beuers et al., Hepatology 33, 1206-1216 (2001)). After cannulation of the bile duct a 20 min sample of bile was collected before the copper chelators were continuously added to the perfusion medium. Bile and outflow perfusate were collected in 10 min intervals as described elsewhere (Beuers et al., log. cit.). D-PA*HCl (20 mg/108 μmol), TETA*2HCl (20 mg/91 μmol), TTM*2NH4 (10 mg/38 μmol) and MB (40 mg/35 μmol) were each dissolved in 50 ml 0.9% NaCl, and continuously added to the perfusion medium via a perfusion pump (Perfusor, Braun, Melsungen) within 2 hours. The molar ratios of the chelators applied was MB 1:D-PA 3.1:TETA 2.6:TTM 1.1. LDH in the outflow perfusate was measured every ten minutes as described (Beuers et al., log. cit.). Control perfusions were done with Krebs-Ringer bicarbonate solution only.

LPP−/− mitochondria = test: Chelator treatment of freshly isolated copper burdened LPP−/− mitochondria (copper extraction); set-up: species or system rat; settings: 30 min incubation

Compound	mitochondrial copper (LPP−/− rats)	serum AST levels (LPP−/− rats)	whole liver copper (LPP−/− rats)	further results
CC(C)(S)[C@@H](N)C(=O)O.Cl [D-PA, D-penicillamine*HCl, reference compound]	No copper reduction	unable to avoid the increase of serum AST levels	No copper reduction	onset of hepatitis (LEC rats): successfully prevent the onset of hepatitis; copper released into bile (LPP−/− livers): did not provoke any detectable release of copper into the bile; also recorded: did not bring copper into bile
NCCNCCNCCN [TETA, trientine*2 HCl, reference compound]	No copper reduction	unable to avoid the increase of serum AST levels	No copper reduction	copper released into bile (LPP−/− livers; HCl): did not provoke any detectable release of copper into the bile; also recorded: did not bring copper into bile
CC(NC(=O)C(C)NC(=S)C1N=C(C(NC(=O)C(CO)NC(=O)C(C)NC(=S)C2N=C(C(=O)CCCNC(=N)N)NC2=O)C(C)OS(=O)(=O)O)OC1=O)C(=O)O (centres unmarked) [mb-SB2]	–	–	–	copper depletion from LPP−/− mitochondria (LPP−/− mitochondria; 1 mM, mitochondria from three LPP−/− rats, vs buffer treated control): depletes copper at least as effective as another MB peptide mb-OB3b; also recorded: decreased at least as effective as the MB peptide mb-OB3b
tetrathiomolybdate*2 NH4 [TTM]	–	–	–	copper associated with LPP−/− mitochondria (LPP−/− mitochondria; 2 mM each): rapidly decreased copper
